Reference: US20130011495A1, “ANTIFUNGAL COMPOUNDS AND USE THEREOF” (priority 2009, published 2013)
“Also recorded” adds a separate entry of the source. Where two headings read alike, the source gives them in different places.

Assays:
[1] = system: esca; settings: 18.5 g/L injected into the trunk; cited from earlier work
[2] = system: Phaeomoniella chlamydospora; experiment: Mycelial growth on solid medium; settings: for inhibition of growth, dose dependence: 5, 10 and 20 mM (whatever concentration); for inhibition of growth, dose dependence / inhibition of growth: FIG. 5 A; for inhibition of fungal development: FIG. 6 A
[3] = system: Phaeoacremonium aleophilum; experiment: Mycelial growth on solid medium; settings: for inhibition of development, dose dependence: 5, 10 and 20 mM
[4] = system: Inonotus obliquus; settings: concentrations of 0.9 and 9 mM; cited from earlier work
[5] = in vivo; cited from earlier work
[6] = system: leaves; experiment: Tests of phytotoxicity (upper limits of amounts); format: in vivo
Description: According to the invention, the upper limits of amounts of the different products were determined in tests of phytotoxicity. First symptoms appear on the leaves at these amounts. […] These amounts can be slightly different or even greater depending on the sensitivity of the plant.

[7] = cited from earlier work
[8] = system: Eutypa lata; settings: pH 4.1; cited from earlier work
[9] = sulfate 40 mM in BNM, solid medium pH 4.2, 18 days
[10] = sulfate 40 mM in BNM, solid medium pH 4.2, 12 days
[11] = 40 mM, used as the only nitrogen source (results not shown)
[12] = Phaeomoniella chlamydospora, 432 h, pH 4.2, read-out: inhibition of growth
[13] = Phaeoacremonium minimum, 288 h, pH 4.2, read-out: inhibition of growth
[14] = Phaeomoniella chlamydospora, 432 h, pH 4.2, read-out: inhibition of mycelial development
[15] = ferrous salt 5 mM, solid medium pH 4.2, 18 days
[16] = ferrous salt 10 mM, solid medium pH 4.2, 18 days
[17] = ferrous salt 10 mM, FIG. 5 B, solid medium pH 4.2, 12 days
[18] = ferrous salt 20 mM, FIG. 5 B, solid medium pH 4.2, 12 days
[19] = 14C-labeled SA at 10 μM, after 4 hours of absorption

O=C([O-])c1ccccc1O.[K+]
efficacy on esca [1]: 45.4%

O=S(=O)([O-])[O-].[Cu+2] [CuSO4, copper sulfate]
inhibition [2, 9]: 100% inhibition
inhibition ([2]; sulfate 40 mM in BNM, solid medium pH 4.2, 18 days, listed as copper sulfate): completely inhibit
inhibition [3, 10]: 100% inhibition
inhibition ([3]; sulfate 40 mM in BNM, solid medium pH 4.2, 12 days, listed as copper sulfate): completely inhibit

O=S(=O)([O-])[O-].[K+].[K+] [K2SO4, potassium sulfate]
inhibition [2, 9]: — (—: no inhibition)
inhibition [3, 10]: — (—: no inhibition)

O=S(=O)([O-])[O-].[Mg+2] [MgSO4, magnesium sulfate]
inhibition [2, 9]: — (—: no inhibition)
inhibition [3, 10]: — (—: no inhibition)

N.N.O=S(=O)(O)O [ammonium sulfate]
growth [2, 11]: slows the growth
inhibition [2, 9]: — (—: no inhibition)
growth [3, 11]: slows the growth
inhibition [3, 10]: — (—: no inhibition)

N[C@@H](CS)C(=O)O [cysteine, L-cysteine]
inhibition at 500 µM [2, 12]: 0%
inhibition at 1000 µM [2, 12]: 13%
inhibition at 5000 µM [2, 12]: 34%
inhibition at 10000 µM [2, 12]: 80%
inhibition at 500 µM [3, 13]: 11%
inhibition at 1000 µM [3, 13]: 18%
inhibition at 5000 µM [3, 13]: 24%
inhibition at 10000 µM [3, 13]: 37%
inhibition of development [4]: inhibits the development

CCO[PH](=O)O [fosetyl-aluminum, aluminum tris-O-ethylphosphonate]
pH of maximum absorption [5]: 5.0
time of detection in the phloem exudate after application [5]: 30 min
inhibition at 1000 µM [2, 14]: 6%
inhibition at 1700 µM [2, 14]: 14%
inhibition at 2700 µM [2, 14]: 46%
inhibition at 3400 µM [2, 14]: 86%
inhibition of mycelial development ([2]; fosetyl-aluminum 0.3 mM, FIG. 7 A, solid medium pH 4.2, 18 days): no effect
upper limit of amount determined in tests of phytotoxicity (first symptoms appear on the leaves) ([6]; in vivo): 81 mM
inhibition at 1700 µM [3, 13]: ~6%
inhibition at 2700 µM [3, 13]: 30%
inhibition at 3400 µM [3, 13]: 45%
inhibition of growth ([3]; fosetyl-aluminum 0.3 mM, FIG. 7 B, solid medium pH 4.2, 12 days): no effect
inhibition of growth ([3]; fosetyl-aluminum 1 mM, FIG. 7 B, solid medium pH 4.2, 12 days): no effect

CC(=O)[O-].CC(=O)[O-].[Fe+2] [iron acetate]
inhibition of growth, dose dependence [2]: dose-dependent inhibition
inhibition of growth [2, 15]: 40%
inhibition of growth [2, 16]: completely inhibited
inhibition of development, dose dependence ([3]; FIG. 5 B): dose-dependent inhibition
inhibition of growth [3, 17]: 45%
inhibition of growth [3, 18]: completely inhibited

O.O.O.O.O.O.O.O=S(=O)([O-])[O-].[Fe+2] [iron sulfate]
inhibition of growth, dose dependence [2]: dose-dependent inhibition
inhibition ([2]; FeSO4 1 mM in BNM, solid medium pH 4.2, 18 days): 4% inhibition
inhibition ([2]; FeSO4 2.5 mM in BNM, solid medium pH 4.2, 18 days): 21% inhibition
inhibition ([2]; FeSO4 5 mM in BNM, solid medium pH 4.2, 18 days): 64% inhibition
inhibition ([2]; FeSO4 10 mM in BNM, solid medium pH 4.2, 18 days): 95% inhibition
inhibition of growth [2, 15]: 65%
inhibition of growth [2, 16]: not the case
inhibition [2, 9]: completely inhibit
inhibition ([2]; sulfate 40 mM in BNM, solid medium pH 4.2, 18 days, listed as FeSO4): 100% inhibition
upper limit of amount determined in tests of phytotoxicity (first symptoms appear on the leaves) ([6]; concentration in the composition): 160 mM
inhibition of development, dose dependence ([3]; FIG. 5 B): dose-dependent inhibition
inhibition ([3]; FeSO4 1 mM in BNM, solid medium pH 4.2, 12 days): 15% inhibition
inhibition ([3]; FeSO4 2.5 mM in BNM, solid medium pH 4.2, 12 days): 23.5% inhibition
inhibition ([3]; FeSO4 5 mM in BNM, solid medium pH 4.2, 12 days): 33% inhibition
inhibition ([3]; FeSO4 10 mM in BNM, solid medium pH 4.2, 12 days): 85% inhibition
inhibition of growth ([3]; ferrous salt 5 mM, FIG. 5 B, solid medium pH 4.2, 12 days): more inhibited with iron sulfate than with iron chloride and acetate
inhibition of growth [3, 17]: 75%
inhibition of growth [3, 18]: slight development
inhibition [3, 10]: completely inhibit
inhibition ([3]; sulfate 40 mM in BNM, solid medium pH 4.2, 12 days, listed as FeSO4): 100% inhibition

O=C(O)c1ccccc1O [salicylic acid, 2-hydroxybenzoic acid]
inhibition at 500 µM [2, 12]: 10%
inhibition at 1000 µM [2, 12]: 28%
inhibition of fungal development ([2]; salicylic acid 0.05 mM, solid medium pH 4.2, 18 days): does not inhibit
inhibition of fungal development ([2]; salicylic acid 0.1 mM, solid medium pH 4.2, 18 days): does not inhibit
concentration detected in phloem sap [7, 19]: 100 µM
concentration detected in xylem sap [7, 19]: 0.67 µM
concentration factor in the phloem ([7]; pH between 4.6 and 5.0): ~10
inhibition at 500 µM [3, 13]: 50%
inhibition of development ([3]; salicylic acid 0.05 mM, FIG. 6 B, solid medium pH 4.2, 12 days): slightly inhibited
inhibition of growth ([3]; salicylic acid 1 mM, FIG. 6 B, solid medium pH 4.2, 12 days): inhibited completely
threshold value of antifungal action [8]: ~0.1 mM

iron chloride
inhibition of growth, dose dependence [2]: dose-dependent inhibition; also recorded: comparable to that obtained with iron sulfate
inhibition of growth [2, 16]: not the case
inhibition of development, dose dependence ([3]; FIG. 5 B): dose-dependent inhibition
inhibition of growth [3, 17]: 75%
inhibition of growth [3, 18]: completely inhibited
